For test [1] the following is noted: cited from earlier work.
How the values of test [2] were obtained:
Patient they are in the ninth month of pregnant without diabetes or hypertension or neuropathy antecedents. […] Twenty four hours later Amikacina IM every 12 hours was administered. […] It was decided to administrate nicotine in watery vehicle by sublingual pathway in a concentration of 3 mg/ml.
At the beginning 15 drops were administrated and 30 minutes later 10 drops more. […] Nicotine was administrated during 4 weeks in dosis of 5 drops by sublingual pathway every three hours.

The conditions of test [3]: 2 drops sublingual every hour. The source says:
Patient with post traumatic bleeding (hyphema). […] We indicated a dosis of 2 drops sublingual pathway every hour, for the hyphema was of 90% the vision was poor and the intraocular pressure was 40 mmHg despite last treatment. All medicine was suspended and began the new treatment.

The conditions of test [4]: twenty four hours later.

In the case of `C/C(=N\N=C(N)N)c1cc(NC(=O)CCCCCCCCC(=O)Nc2cc(/C(C)=N/N=C(N)N)cc(/C(C)=N/N=C(N)N)c2)cc(/C(C)=N/N=C(N)N)c1.Cl.Cl.Cl.Cl` [CNI-1493], the “subyacent renal trauma by ischemia/reperfussion” value in test [1] (in vivo) is listed as “does not have effect”. The distant pulmonary trauma result in test [1] (renal ischemia/reperfussion) is given as “partialy reduces”.
Regarding `CN1CCCC1c1cccnc1` (stereo not shown) [nicotine], the pain result in test [2] (nicotine 3 mg/ml in watery vehicle, sublingual, 15 drops then 10 drops 30 minutes later) is “diminished significantly”. For the same compound, in test [2] (nicotine 3 mg/ml sublingual), the general physical state entry is given as “improves in the dramatic form”. This compound also came in with a recovery in test [3] (after four weeks) of 90%. For the same compound, the vision in test [3] (three weeks later) is recorded as 20/40. This compound also showed a weight increase in test [4] of 80 grams.

These data come from patent publication US20090197921A1, “USE OF NICOTINE, ANALOGUES, THEREOF, PRECURSORS THEREOF OR D[…] IN THE TREATMENT OF VARIOUS PA[…] CAPABLE OF I[…] a-MSH AD[…] PROPHYLACTIC OR T[…]” (priority 2006, published 2009).
